Data reported in patent US20100144733A1, “Compounds, compositions and methods comprising heteroaromatic derivatives” (Institute for OneWorld Health, priority 2008, published 2010).

What was measured:
[1] = target: T1, CHO-CFTR cell line (Homo sapiens, UniProt P13569); test: CHO-CFTR assay (FLIPR assay, same conditions as the T84 assay); type: cell-based; conditions: imidazole and triazole-containing compounds
T1 construct: expressed in transfected cells; host or cells: CHO (CHO-CFTR cell line)

[2] = target: T2, CFTR (Homo sapiens, UniProt P13569); test: T84 assay (FLIPR membrane potential dye, forskolin/IBMX-stimulated CFTR channel activity); type: cell-based; conditions: imidazole and triazole-containing compounds (Tables 13, 14, 14′), read-out: IC50 (μM) (T84 assay)
T2 construct: endogenous in cells; host or cells: T84 human colonic cells (ECACC)
Outline: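 Fluorescence from a membrane potential dye in T84 monolayers (HBSS with 10 mM Hepes) is followed each second for 150 s. Cells are exposed to test compound during the 45 min dye loading, then challenged with forskolin (10 μM) and IBMX (100 μM) to open CFTR. Inhibitors suppress the depolarization-driven fluorescence increase.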

T1 sequence (P13569 whole entry): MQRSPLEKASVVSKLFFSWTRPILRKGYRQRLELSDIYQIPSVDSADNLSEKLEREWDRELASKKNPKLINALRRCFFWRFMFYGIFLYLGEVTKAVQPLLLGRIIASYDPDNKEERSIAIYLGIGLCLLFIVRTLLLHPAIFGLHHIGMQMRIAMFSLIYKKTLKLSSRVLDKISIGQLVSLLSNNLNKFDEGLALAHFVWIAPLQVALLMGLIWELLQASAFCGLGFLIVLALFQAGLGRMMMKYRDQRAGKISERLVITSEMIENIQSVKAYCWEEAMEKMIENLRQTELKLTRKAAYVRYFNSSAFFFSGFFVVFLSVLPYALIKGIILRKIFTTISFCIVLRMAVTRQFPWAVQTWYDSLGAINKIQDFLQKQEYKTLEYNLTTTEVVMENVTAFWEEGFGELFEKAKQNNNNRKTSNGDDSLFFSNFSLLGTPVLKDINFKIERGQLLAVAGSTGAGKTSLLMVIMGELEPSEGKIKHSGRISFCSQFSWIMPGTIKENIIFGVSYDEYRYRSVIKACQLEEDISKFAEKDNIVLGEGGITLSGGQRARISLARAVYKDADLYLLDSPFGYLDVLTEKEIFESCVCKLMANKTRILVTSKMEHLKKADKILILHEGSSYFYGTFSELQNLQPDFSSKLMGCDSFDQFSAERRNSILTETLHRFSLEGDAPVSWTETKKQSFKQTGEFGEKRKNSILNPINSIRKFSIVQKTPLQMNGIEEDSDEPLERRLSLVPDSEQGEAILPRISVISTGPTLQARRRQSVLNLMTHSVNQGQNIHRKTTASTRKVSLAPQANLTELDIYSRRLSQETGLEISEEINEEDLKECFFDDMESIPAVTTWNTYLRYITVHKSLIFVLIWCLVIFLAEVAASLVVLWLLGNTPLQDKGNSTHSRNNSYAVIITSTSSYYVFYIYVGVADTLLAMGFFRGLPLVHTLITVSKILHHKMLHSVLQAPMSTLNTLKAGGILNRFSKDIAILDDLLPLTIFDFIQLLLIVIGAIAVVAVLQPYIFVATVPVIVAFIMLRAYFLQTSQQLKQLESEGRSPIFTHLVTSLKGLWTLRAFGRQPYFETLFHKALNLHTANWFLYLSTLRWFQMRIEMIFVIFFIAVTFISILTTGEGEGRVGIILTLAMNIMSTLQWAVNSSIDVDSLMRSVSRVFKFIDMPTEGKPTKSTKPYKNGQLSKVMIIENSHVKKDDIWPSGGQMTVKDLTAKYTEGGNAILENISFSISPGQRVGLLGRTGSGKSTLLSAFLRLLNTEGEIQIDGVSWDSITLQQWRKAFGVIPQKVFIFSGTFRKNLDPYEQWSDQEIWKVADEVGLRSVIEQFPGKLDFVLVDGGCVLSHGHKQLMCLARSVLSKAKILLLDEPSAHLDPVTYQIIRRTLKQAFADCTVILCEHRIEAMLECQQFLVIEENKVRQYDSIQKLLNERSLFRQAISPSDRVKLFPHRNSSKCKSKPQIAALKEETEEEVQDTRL
T2 sequence (P13569 whole entry): as above

IC50 [1] [µM]	IC50 [2] [µM]	Compound
5.99	4.3	O=C(NCc1ccc(Oc2cccc(N3CCCC3)c2)cc1)c1ncn(-c2cc(Cl)c(O)c(Cl)c2)n1 [69i, 1-(3,5-dichloro-4-hydroxyphenyl)-N-(4-(3-(pyrrolidin-1-yl)phenoxy)benzyl)-1H-1,2,4-triazole-3-carboxamide]
19.4	4.72	O=C(NCc1ccc(Oc2ccc(Cl)c(C(F)(F)F)c2)cc1)c1ncn(-c2cc(Cl)c(O)c(Cl)c2)n1 [70i, N-(4-(4-chloro-3-(trifluoromethyl)phenoxy)benzyl)-1-(3,5-dichloro-4-hydroxyphenyl)-1H-1,2,4-triazole-3-carboxamide]
31	8.06	O=C(NCc1ccc(Oc2ccc(OCc3ccccc3)c(F)c2)cc1)c1ncn(-c2cc(Cl)c(O)c(Cl)c2)n1 [71i, N-(4-(4-(benzyloxy)-3-fluorophenoxy)benzyl)-1-(3,5-dichloro-4-hydroxyphenyl)-1H-1,2,4-triazole-3-carboxamide]
12.3	7.6	O=C(NCc1ccc(Oc2ccc(OCc3ccccc3)c(Cl)c2)cc1)c1ncn(-c2cc(Cl)c(O)c(Cl)c2)n1 [72i, N-(4-(4-(benzyloxy)-3-chlorophenoxy)benzyl)-1-(3,5-dichloro-4-hydroxyphenyl)-1H-1,2,4-triazole-3-carboxamide]
17	30.7	O=C(NCc1ccc(Oc2cc(Cl)c(OCc3ccccc3)c(Cl)c2)cc1)c1ncn(-c2cc(Cl)c(O)c(Cl)c2)n1 [73i]
40.1	15.6	O=C(c1ncn(-c2cc(Cl)c(O)c(Cl)c2)n1)N(Cc1ccccc1)Cc1cccnc1 [75i, N-benzyl-1-(3,5-dichloro-4-hydroxyphenyl)-N-(pyridin-3-ylmethyl)-1H-1,2,4-triazole-3-carboxamide]
12.2	11.3	O=C(NCc1ccc(Oc2ccc(CO)cc2)cc1)c1ncn(-c2cc(Cl)c(O)c(Cl)c2)n1 [76i, 1-(3,5-dichloro-4-hydroxyphenyl)-N-(4-(4-(hydroxymethyl)phenoxy)benzyl)-1H-1,2,4-triazole-3-carboxamide]
13.7	11.4	CC(C)(C)CCN(Cc1cccnc1)C(=O)c1ncn(-c2cc(Cl)c(O)c(Cl)c2)n1 [78i, 1-(3,5-dichloro-4-hydroxyphenyl)-N-(3,3-dimethylbutyl)-N-(pyridin-3-ylmethyl)-1H-1,2,4-triazole-3-carboxamide]
13.3	4.4	O=C(c1ncn(-c2cc(Cl)c(O)c(Cl)c2)n1)N(Cc1ccccc1)Cc1ccc(Oc2ccccc2)cc1 [80i, N-benzyl-1-(3,5-dichloro-4-hydroxyphenyl)-N-(4-phenoxybenzyl)-1H-1,2,4-triazole-3-carboxamide]
16.5	1.26	CC(C)c1ccc(CN(Cc2ccccc2)C(=O)c2ncn(-c3cc(Cl)c(O)c(Cl)c3)n2)cc1 [81i, N-benzyl-1-(3,5-dichloro-4-hydroxyphenyl)-N-(4-isopropylbenzyl)-1H-1,2,4-triazole-3-carboxamide]
19.7	1.6	CC(C)(C)c1ccc(CN(Cc2ccccc2)C(=O)c2ncn(-c3cc(Cl)c(O)c(Cl)c3)n2)cc1 [82i, N-benzyl-N-(4-tert-butylbenzyl)-1-(3,5-dichloro-4-hydroxyphenyl)-1H-1,2,4-triazole-3-carboxamide]
14.3	3.22	O=C(c1ncn(-c2cc(Cl)c(O)c(Cl)c2)n1)N(Cc1ccccc1)Cc1ccc(Cl)c(Cl)c1 [83i, N-benzyl-1-(3,5-dichloro-4-hydroxyphenyl)-N-(3,4-dichlorobenzyl)-1H-1,2,4-triazole-3-carboxamide]
28.9	1.81	CCN(Cc1ccc(Oc2ccccc2)cc1)C(=O)c1ncn(-c2cc(Cl)c(O)c(Cl)c2)n1 [86i, 1-(3,5-dichloro-4-hydroxyphenyl)-N-ethyl-N-(4-phenoxybenzyl)-1H-1,2,4-triazole-3-carboxamide]
20.6	1.23	CCN(Cc1ccc(C(C)C)cc1)C(=O)c1ncn(-c2cc(Cl)c(O)c(Cl)c2)n1 [87i, 1-(3,5-dichloro-4-hydroxyphenyl)-N-ethyl-N-(4-isopropylbenzyl)-1H-1,2,4-triazole-3-carboxamide]
6.58	0.75	CCN(Cc1ccc(C(C)(C)C)cc1)C(=O)c1ncn(-c2cc(Cl)c(O)c(Cl)c2)n1 [88i, N-(4-tert-butylbenzyl)-1-(3,5-dichloro-4-hydroxyphenyl)-N-ethyl-1H-1,2,4-triazole-3-carboxamide]
24.6	3.34	CCN(Cc1cccc(OC(F)(F)F)c1)C(=O)c1ncn(-c2cc(Cl)c(O)c(Cl)c2)n1 [89i, 1-(3,5-dichloro-4-hydroxyphenyl)-N-ethyl-N-(3-(trifluoromethoxy)benzyl)-1H-1,2,4-triazole-3-carboxamide]

IC50 [1] [µM]	IC50 [2] [µM]	Compound
15.9	5.98	CCN(Cc1cccc(C(F)(F)F)c1)C(=O)c1ncn(-c2cc(Cl)c(O)c(Cl)c2)n1 [90i, 1-(3,5-dichloro-4-hydroxyphenyl)-N-ethyl-N-(3-(trifluoromethyl)benzyl)-1H-1,2,4-triazole-3-carboxamide]
20.6	2.89	O=C(c1ncn(-c2cc(Cl)c(O)c(Cl)c2)n1)N(Cc1ccc(Oc2ccccc2)cc1)Cc1cccnc1 [91i, 1-(3,5-dichloro-4-hydroxyphenyl)-N-(4-phenoxybenzyl)-N-(pyridin-3-ylmethyl)-1H-1,2,4-triazole-3-carboxamide]
8.57	1.47	CC(C)c1ccc(CN(Cc2cccnc2)C(=O)c2ncn(-c3cc(Cl)c(O)c(Cl)c3)n2)cc1 [92i, 1-(3,5-dichloro-4-hydroxyphenyl)-N-(4-isopropylbenzyl)-N-(pyridin-3-ylmethyl)-1H-1,2,4-triazole-3-carboxamide]
4.67	1.19	CC(C)(C)c1ccc(CN(Cc2cccnc2)C(=O)c2ncn(-c3cc(Cl)c(O)c(Cl)c3)n2)cc1 [93i, N-(4-tert-butylbenzyl)-1-(3,5-dichloro-4-hydroxyphenyl)-N-(pyridin-3-ylmethyl)-1H-1,2,4-triazole-3-carboxamide]
21.1	6.95	O=C(c1ncn(-c2cc(Cl)c(O)c(Cl)c2)n1)N(Cc1cccnc1)Cc1cccc(C(F)(F)F)c1 [94i, 1-(3,5-dichloro-4-hydroxyphenyl)-N-(pyridin-3-ylmethyl)-N-(3-(trifluoromethyl)benzyl)-1H-1,2,4-triazole-3-carboxamide]
18.9	2.63	CC(C)N(Cc1ccc(Oc2ccccc2)cc1)C(=O)c1ncn(-c2cc(Cl)c(O)c(Cl)c2)n1 [95i, 1-(3,5-dichloro-4-hydroxyphenyl)-N-isopropyl-N-(4-phenoxybenzyl)-1H-1,2,4-triazole-3-carboxamide]
22.1	2.53	CC(C)c1ccc(CN(C(=O)c2ncn(-c3cc(Cl)c(O)c(Cl)c3)n2)C(C)C)cc1 [96i, 1-(3,5-dichloro-4-hydroxyphenyl)-N-isopropyl-N-(4-isopropylbenzyl)-1H-1,2,4-triazole-3-carboxamide]
35.5	1.23	CC(C)N(Cc1ccc(C(C)(C)C)cc1)C(=O)c1ncn(-c2cc(Cl)c(O)c(Cl)c2)n1 [97i]
8.39	8.13	CC(C)N(Cc1ccc(Cl)c(Cl)c1)C(=O)c1ncn(-c2cc(Cl)c(O)c(Cl)c2)n1 [98i, 1-(3,5-dichloro-4-hydroxyphenyl)-N-(3,4-dichlorobenzyl)-N-isopropyl-1H-1,2,4-triazole-3-carboxamide]
12	7.93	CC(C)N(Cc1cccc(OC(F)(F)F)c1)C(=O)c1ncn(-c2cc(Cl)c(O)c(Cl)c2)n1 [99i, 1-(3,5-dichloro-4-hydroxyphenyl)-N-isopropyl-N-(3-(trifluoromethoxy)benzyl)-1H-1,2,4-triazole-3-carboxamide]
9.09	1.85	C=CCN(Cc1ccc(Oc2ccccc2)cc1)C(=O)c1ncn(-c2cc(Cl)c(O)c(Cl)c2)n1 [100i, N-allyl-1-(3,5-dichloro-4-hydroxyphenyl)-N-(4-phenoxybenzyl)-1H-1,2,4-triazole-3-carboxamide]
2.69	1.85	C=CCN(Cc1ccc(Cl)c(Cl)c1)C(=O)c1ncn(-c2cc(Cl)c(O)c(Cl)c2)n1 [102i, N-allyl-1-(3,5-dichloro-4-hydroxyphenyl)-N-(3,4-dichlorobenzyl)-1H-1,2,4-triazole-3-carboxamide]
32.9	2.53	C=CCN(Cc1cccc(OC(F)(F)F)c1)C(=O)c1ncn(-c2cc(Cl)c(O)c(Cl)c2)n1 [103i, N-allyl-1-(3,5-dichloro-4-hydroxyphenyl)-N-(3-(trifluoromethoxy)benzyl)-1H-1,2,4-triazole-3-carboxamide]
41.9	5.83	C=CCN(Cc1cccc(C(F)(F)F)c1)C(=O)c1ncn(-c2cc(Cl)c(O)c(Cl)c2)n1 [104i, N-allyl-1-(3,5-dichloro-4-hydroxyphenyl)-N-(3-(trifluoromethyl)benzyl)-1H-1,2,4-triazole-3-carboxamide]
11.3	3.64	CC(C)(C)CCN(Cc1ccc(Oc2ccccc2)cc1)C(=O)c1ncn(-c2cc(Cl)c(O)c(Cl)c2)n1 [105i, 1-(3,5-dichloro-4-hydroxyphenyl)-N-(3,3-dimethylbutyl)-N-(4-phenoxybenzyl)-1H-1,2,4-triazole-3-carboxamide]
13.1	1.8	CC(C)(C)CCN(Cc1ccc(C(C)(C)C)cc1)C(=O)c1ncn(-c2cc(Cl)c(O)c(Cl)c2)n1 [106i, N-(4-tert-butylbenzyl)-1-(3,5-dichloro-4-hydroxyphenyl)-N-(3,3-dimethylbutyl)-1H-1,2,4-triazole-3-carboxamide]
